Converted amounts (≈) assume the structure as drawn.
Key:
Assay type in all cases: functional
[1] = tested on: Pseudomonas aeruginosa; assay: Antimicrobial activity against Pseudomonas aeruginosa isolate M136074 expressing IMP-22 beta lactamase gene by Etest
[2] = tested on: Pseudomonas aeruginosa; assay: Antimicrobial activity against Pseudomonas aeruginosa isolate 26285 expressing IMP-13 beta lactamase gene by Etest
[3] = tested on: Pseudomonas aeruginosa; assay: Antimicrobial activity against Pseudomonas aeruginosa isolate 22843 expressing VIM-2 beta lactamase gene by Etest
[4] = tested on: Pseudomonas aeruginosa; assay: Antimicrobial activity against Pseudomonas aeruginosa isolate 27135 expressing VIM-2 beta lactamase gene by Etest
[5] = tested on: Pseudomonas aeruginosa; assay: Antimicrobial activity against Pseudomonas aeruginosa isolate M136074 expressing IMP-22 beta lactamase gene by Etest in presence of Tazobactam
[6] = tested on: Pseudomonas aeruginosa; assay: Antimicrobial activity against Pseudomonas aeruginosa isolate 26285 expressing IMP-13 beta lactamase gene by Etest in presence of Tazobactam
[7] = tested on: Pseudomonas aeruginosa; assay: Antimicrobial activity against Pseudomonas aeruginosa isolate 22843 expressing VIM-2 beta lactamase gene by Etest in presence of Tazobactam
[8] = tested on: Pseudomonas aeruginosa; assay: Antimicrobial activity against Pseudomonas aeruginosa isolate 27135 expressing VIM-2 beta lactamase gene by Etest in presence of Tazobactam
[9] = tested on: Pseudomonas aeruginosa; assay: Antimicrobial activity against Pseudomonas aeruginosa isolate M136074 expressing IMP-22 beta lactamase gene by Etest in presence of clavulanate
[10] = tested on: Pseudomonas aeruginosa; assay: Antimicrobial activity against Pseudomonas aeruginosa isolate 26285 expressing IMP-13 beta lactamase gene by Etest in presence of clavulanate
[11] = tested on: Pseudomonas aeruginosa; assay: Antimicrobial activity against Pseudomonas aeruginosa isolate 22843 expressing VIM-2 beta lactamase gene by Etest in presence of clavulanate
[12] = tested on: Pseudomonas aeruginosa; assay: Antimicrobial activity against Pseudomonas aeruginosa isolate 27135 expressing VIM-2 beta lactamase gene by Etest in presence of clavulanate

Compound	MIC [1] [µg/mL]	MIC [2] [µg/mL]	MIC [3] [µg/mL]	MIC [4] [µg/mL]	MIC [5] [µg/mL]	MIC [6] [µg/mL]	MIC [7] [µg/mL]	MIC [8] [µg/mL]	MIC [9] [µg/mL]	MIC [10] [µg/mL]	MIC [11] [µg/mL]	MIC [12] [µg/mL]
NCC[C@H](O)C(=O)N[C@@H]1C[C@H](N)[C@@H](O[C@H]2O[C@H](CN)[C@@H](O)[C@H](O)[C@H]2O)[C@H](O)[C@H]1O[C@H]1O[C@H](CO)[C@@H](O)[C@H](N)[C@H]1O [AMIKACIN]	6 (≈ 10.2 µM)	24 (≈ 41 µM)	> 256	> 256								
C[C@H]1[C@H](NC(=O)/C(=N\OC(C)(C)C(=O)O)c2csc(N)n2)C(=O)N1S(=O)(=O)O [AZTREONAM]	4 (≈ 9.19 µM)	12 (≈ 27.6 µM)	12 (≈ 27.6 µM)	12 (≈ 27.6 µM)								
CO/N=C(\C(=O)N[C@@H]1C(=O)N2C(C(=O)[O-])=C(C[N+]3(C)CCCC3)CS[C@H]12)c1csc(N)n1 [CEFEPIME]	128 (≈ 266 µM)	128 (≈ 266 µM)		24 (≈ 49.9 µM)								
CO/N=C(\C(=O)N[C@@H]1C(=O)N2C(C(=O)O)=C(COC(C)=O)CS[C@H]12)c1csc(N)n1 [CEFOTAXIME]	> 256	> 256	> 256	> 256								
CC(C)(O/N=C(\C(=O)N[C@@H]1C(=O)N2C(C(=O)[O-])=C(C[n+]3ccccc3)CS[C@H]12)c1csc(N)n1)C(=O)O [CEFTAZIDIME]	> 256	> 256	12 (≈ 22 µM)	12 (≈ 22 µM)								
O=C(O)c1cn(C2CC2)c2cc(N3CCNCC3)c(F)cc2c1=O [CIPROFLOXACIN]	32 (≈ 96.6 µM)	> 32	> 32	> 32								
C[C@@H](O)[C@H]1C(=O)N2C(C(=O)O)=C(SCCNC=N)C[C@H]12 [IMIPENEM ANHYDROUS]	12 (≈ 40.1 µM)	> 32	> 32	> 32								
C[C@@H](O)[C@H]1C(=O)N2C(C(=O)O)=C(S[C@@H]3CN[C@H](C(=O)N(C)C)C3)[C@H](C)[C@H]12 [MEROPENEM]	24 (≈ 62.6 µM)	> 32	> 32	> 32								
CCN1CCN(C(=O)N[C@@H](C(=O)N[C@@H]2C(=O)N3[C@@H]2SC(C)(C)[C@@H]3C(=O)O)c2ccccc2)C(=O)C1=O [PIPERACILLIN]	12 (≈ 23.2 µM)	16 (≈ 30.9 µM)	32 (≈ 61.8 µM)	32 (≈ 61.8 µM)	8	16	32	32				
CC1(C)S[C@@H]2[C@H](NC(=O)[C@H](C(=O)O)c3ccsc3)C(=O)N2[C@H]1C(=O)O [TICARCILLIN]	> 256	> 256	> 256	> 256					> 256	> 256	> 256	> 256
NC[C@H]1O[C@H](O[C@H]2[C@H](O)[C@@H](O[C@H]3O[C@H](CO)[C@@H](O)[C@H](N)[C@H]3O)[C@H](N)C[C@@H]2N)[C@H](N)C[C@@H]1O [TOBRAMYCIN]	2 (≈ 4.28 µM)	128 (≈ 274 µM)	> 256	> 256								
COLISTIN	6	6	4	4								
GENTAMICIN	4	> 256	8	8								

Source: ChEMBL document CHEMBL1649164, “First organisms with acquired metallo-beta-lactamases (IMP-13, IMP-22, and VIM-2) reported in Austria” (2009)
